What was measured:
Conditions in all cases: human; call rule not given here
Hepatotoxicity [1] = assay: FDA HLAED, lactate dehydrogenase (LDH) increase
Hepatotoxicity [2] = assay: FDA HLAED, serum glutamic pyruvic transaminase (SGPT) increase
Hepatotoxicity [3] = assay: FDA HLAED, serum glutamic oxaloacetic transaminase (SGOT) increase
Hepatotoxicity [4] = assay: FDA HLAED, alkaline phosphatase increase
Hepatotoxicity [5] = assay: FDA HLAED, liver enzyme composite activity
Hepatotoxicity [6] = assay: FDA HLAED, gamma-glutamyl transferase (GGT) increase
Wherever GGT Increase - Index Value is given: reference of the scale not given here.
Wherever LDH Increase - Index Value is given: reference of the scale not given here.

Structure (SMILES): COc1ccccc1OCCNCC(O)COc1cccc2[nH]c3ccccc3c12 (stereo not drawn) [CARVEDILOL]
- LDH Increase - Activity Score (Hepatotoxicity [1]): Inactive
- LDH Increase - Index Value (Hepatotoxicity [1]): 0
- LDH Increase - Number of Reports (Hepatotoxicity [1]): < 4
- SGPT Increase - Activity Score (Hepatotoxicity [2]): Inactive
- SGPT Increase - Index Value (Hepatotoxicity [2]): 0
- SGPT Increase - Number of Reports (Hepatotoxicity [2]): < 4
- SGOT Increase - Activity Score (Hepatotoxicity [3]): Inactive
- SGOT Increase - Index Value (Hepatotoxicity [3]): 0
- SGOT Increase - Number of Reports (Hepatotoxicity [3]): < 4
- Alkaline Phosphatase Increase - Activity Score (Hepatotoxicity [4]): Inactive
- Alkaline Phosphatase Increase - Index Value (Hepatotoxicity [4]): 0
- Alkaline Phosphatase Increase - Number of Reports (Hepatotoxicity [4]): < 4
- Composite Activity - Active (Hepatotoxicity [5]): 0
- Composite Activity - Marginal (Hepatotoxicity [5]): 0
- Composite Activity - Score (Hepatotoxicity [5]): Inactive
- GGT Increase - Activity Score (Hepatotoxicity [6]): Inactive
- GGT Increase - Index Value (Hepatotoxicity [6]): 0
- GGT Increase - Number of Reports (Hepatotoxicity [6]): < 4

Structure (SMILES): N[C@@H](C(=O)N[C@@H]1C(=O)N2C(C(=O)O)=C(Cl)CS[C@H]12)c1ccccc1 [CEFACLOR ANHYDROUS]
- LDH Increase - Activity Score (Hepatotoxicity [1]): Inactive
- LDH Increase - Index Value (Hepatotoxicity [1]): 0.4
- LDH Increase - Number of Reports (Hepatotoxicity [1]): >= 4
- SGPT Increase - Activity Score (Hepatotoxicity [2]): Inactive
- SGPT Increase - Index Value (Hepatotoxicity [2]): 2.9
- SGPT Increase - Number of Reports (Hepatotoxicity [2]): >= 4
- SGOT Increase - Activity Score (Hepatotoxicity [3]): Active
- SGOT Increase - Index Value (Hepatotoxicity [3]): 6
- SGOT Increase - Number of Reports (Hepatotoxicity [3]): >= 4
- Alkaline Phosphatase Increase - Activity Score (Hepatotoxicity [4]): Marginally Active
- Alkaline Phosphatase Increase - Index Value (Hepatotoxicity [4]): 3.4
- Alkaline Phosphatase Increase - Number of Reports (Hepatotoxicity [4]): >= 4
- Composite Activity - Active (Hepatotoxicity [5]): 1
- Composite Activity - Marginal (Hepatotoxicity [5]): 1
- Composite Activity - Score (Hepatotoxicity [5]): Inactive
- GGT Increase - Activity Score (Hepatotoxicity [6]): Inactive
- GGT Increase - Index Value (Hepatotoxicity [6]): 0
- GGT Increase - Number of Reports (Hepatotoxicity [6]): < 4

Structure (SMILES): CC1=C(C(=O)O)N2C(=O)[C@@H](NC(=O)[C@H](N)c3ccc(O)cc3)[C@H]2SC1 [CEFADROXIL]
- LDH Increase - Activity Score (Hepatotoxicity [1]): Inactive
- LDH Increase - Index Value (Hepatotoxicity [1]): 0
- LDH Increase - Number of Reports (Hepatotoxicity [1]): < 4
- SGPT Increase - Activity Score (Hepatotoxicity [2]): Inactive
- SGPT Increase - Index Value (Hepatotoxicity [2]): 0
- SGPT Increase - Number of Reports (Hepatotoxicity [2]): < 4
- SGOT Increase - Activity Score (Hepatotoxicity [3]): Inactive
- SGOT Increase - Index Value (Hepatotoxicity [3]): 0
- SGOT Increase - Number of Reports (Hepatotoxicity [3]): < 4
- Alkaline Phosphatase Increase - Activity Score (Hepatotoxicity [4]): Inactive
- Alkaline Phosphatase Increase - Index Value (Hepatotoxicity [4]): 0
- Alkaline Phosphatase Increase - Number of Reports (Hepatotoxicity [4]): < 4
- Composite Activity - Active (Hepatotoxicity [5]): 0
- Composite Activity - Marginal (Hepatotoxicity [5]): 0
- Composite Activity - Score (Hepatotoxicity [5]): Inactive
- GGT Increase - Activity Score (Hepatotoxicity [6]): Inactive
- GGT Increase - Index Value (Hepatotoxicity [6]): 0
- GGT Increase - Number of Reports (Hepatotoxicity [6]): < 4

Structure (SMILES): Cn1nnnc1SCC1=C(C(=O)[O-])N2C(=O)[C@@H](NC(=O)[C@H](OC=O)c3ccccc3)[C@H]2SC1.[Na+] [CEFAMANDOLE NAFATE]
- LDH Increase - Activity Score (Hepatotoxicity [1]): Inactive
- LDH Increase - Index Value (Hepatotoxicity [1]): 0
- LDH Increase - Number of Reports (Hepatotoxicity [1]): < 4
- SGPT Increase - Activity Score (Hepatotoxicity [2]): Inactive
- SGPT Increase - Index Value (Hepatotoxicity [2]): 0
- SGPT Increase - Number of Reports (Hepatotoxicity [2]): < 4
- SGOT Increase - Activity Score (Hepatotoxicity [3]): Inactive
- SGOT Increase - Index Value (Hepatotoxicity [3]): 0
- SGOT Increase - Number of Reports (Hepatotoxicity [3]): < 4
- Alkaline Phosphatase Increase - Activity Score (Hepatotoxicity [4]): Inactive
- Alkaline Phosphatase Increase - Index Value (Hepatotoxicity [4]): 0
- Alkaline Phosphatase Increase - Number of Reports (Hepatotoxicity [4]): < 4
- Composite Activity - Active (Hepatotoxicity [5]): 0
- Composite Activity - Marginal (Hepatotoxicity [5]): 0
- Composite Activity - Score (Hepatotoxicity [5]): Inactive
- GGT Increase - Activity Score (Hepatotoxicity [6]): Inactive
- GGT Increase - Index Value (Hepatotoxicity [6]): 0
- GGT Increase - Number of Reports (Hepatotoxicity [6]): < 4

Structure (SMILES): Cn1nnnc1SCC1=C(C(=O)O)N2C(=O)[C@@H](NC(=O)[C@H](O)c3ccccc3)[C@H]2SC1 [CEFAMANDOLE]
- LDH Increase - Activity Score (Hepatotoxicity [1]): Inactive
- LDH Increase - Index Value (Hepatotoxicity [1]): 0
- LDH Increase - Number of Reports (Hepatotoxicity [1]): < 4
- SGPT Increase - Activity Score (Hepatotoxicity [2]): Inactive
- SGPT Increase - Index Value (Hepatotoxicity [2]): 0
- SGPT Increase - Number of Reports (Hepatotoxicity [2]): < 4
- SGOT Increase - Activity Score (Hepatotoxicity [3]): Inactive
- SGOT Increase - Index Value (Hepatotoxicity [3]): 0
- SGOT Increase - Number of Reports (Hepatotoxicity [3]): < 4
- Alkaline Phosphatase Increase - Activity Score (Hepatotoxicity [4]): Inactive
- Alkaline Phosphatase Increase - Index Value (Hepatotoxicity [4]): 0
- Alkaline Phosphatase Increase - Number of Reports (Hepatotoxicity [4]): < 4
- Composite Activity - Active (Hepatotoxicity [5]): 0
- Composite Activity - Marginal (Hepatotoxicity [5]): 0
- Composite Activity - Score (Hepatotoxicity [5]): Inactive
- GGT Increase - Activity Score (Hepatotoxicity [6]): Inactive
- GGT Increase - Index Value (Hepatotoxicity [6]): 0
- GGT Increase - Number of Reports (Hepatotoxicity [6]): < 4

Structure (SMILES): C=CC1=C(C(=O)O)N2C(=O)[C@@H](NC(=O)/C(=N\OCC(=O)O)c3csc(N)n3)[C@H]2SC1 [CEFIXIME]
- LDH Increase - Activity Score (Hepatotoxicity [1]): Inactive
- LDH Increase - Index Value (Hepatotoxicity [1]): 0.1
- LDH Increase - Number of Reports (Hepatotoxicity [1]): < 4
- SGPT Increase - Activity Score (Hepatotoxicity [2]): Inactive
- SGPT Increase - Index Value (Hepatotoxicity [2]): 0.4
- SGPT Increase - Number of Reports (Hepatotoxicity [2]): >= 4
- SGOT Increase - Activity Score (Hepatotoxicity [3]): Inactive
- SGOT Increase - Index Value (Hepatotoxicity [3]): 0.4
- SGOT Increase - Number of Reports (Hepatotoxicity [3]): >= 4
- Alkaline Phosphatase Increase - Activity Score (Hepatotoxicity [4]): Inactive
- Alkaline Phosphatase Increase - Index Value (Hepatotoxicity [4]): 13.7
- Alkaline Phosphatase Increase - Number of Reports (Hepatotoxicity [4]): < 4
- Composite Activity - Active (Hepatotoxicity [5]): 0
- Composite Activity - Marginal (Hepatotoxicity [5]): 0
- Composite Activity - Score (Hepatotoxicity [5]): Inactive
- GGT Increase - Activity Score (Hepatotoxicity [6]): Inactive
- GGT Increase - Index Value (Hepatotoxicity [6]): 0
- GGT Increase - Number of Reports (Hepatotoxicity [6]): < 4
